Measured values taken from patent US9663454B2, “3-aryl propiolonitrile compounds for thiol labeling” (Universite de Strasbourg, priority 2013, dated 2017).

What was measured:
[1] = Hydrolytic stability in PBS, HPLC monitoring; assay type: physicochemical; details: PBS (1×, pH 7.6), 1 mM, 25° C.
Method: FIG. 3a-3b: HPLC monitoring of the hydrolysis of phenylmaleimide (2) in PBS (1×, pH 7.6) at 1 mM concentration at 25° C.; the peaks correspond, from the earliest to the latest, to
[drawing 5] conversion was monitored by disappearance of the starting material (a). Pseudo first order rate constant for the reaction was determined by plotting the ln([phenylmaleimide]) versus time and analyzing by linear regression. The constant corresponds to the absolute value of determined slope (b).
FIG. 4: HPLC monitoring of hydrolytic stability of N-(4-(cyanoethynyl)phenyl)acetamide (pNHAc-APN, 11) in PBS (1×, pH 7.6) at 1 mM concentration at 25° C. Conversion was monitored by disappearance of the starting material; the peaks correspond, from the earliest to the latest, to
To a vial containing 980 μL of PBS (1×, pH 7.6), were subsequently added 10 μL of a stock solution of benzamide and 10 μL of a stock solution of electrophile (phenylmaleimide 1 or
[drawing 112] 11) to give final concentration of 1 mM (both internal standard and electrophile). Aliquots of the reaction mixture (50 μL) were analyzed by HPLC for 5 hours of hydrolysis (injection every 30 min). Areas under the peaks of the starting materials and hydrolysis products were normalized according to the area of the peak of the internal standard.

[2] = Selectivity screening of electrophiles on amino acid benzylamides, HPLC; details: in 1 hour in PBS (1×, pH 7.6) in presence of the electrophile, 1 mM reagents
Method: (§1) Screening for selectivity was done on benzylamides of non-protected amino acids. 100 mM stock solutions of benzylamides of amino acids (in form of TFA salts) and electrophiles (phenylpropiolonitrile and phenylmaleimide) were prepared in DMSO and stored at −20° C. A 100 mM stock solution of benzamide (used as an internal standard) was prepared in distilled water and stocked at −20° C. Analyses of reaction mixtures were conducted with Shimadzu LC with SunFire™ C18 5 μM 4.6×150 mm column (Waters). HPLC parameters were as follows: flow rate 1 mL/min, gradient from 5 to 95% of mobile phase B from 0 to 20 min, followed by 5 min at 95% of mobile phase and post time of 5 min. Mobile phase A was 0.05% TFA in water (mQ) (v/v), and mobile phase B was acetonitrile (HPLC grade). Data were analyzed using Shimadzu analysis software. Signals were normalized according to the area of the peak of the internal standard (benzamide). Areas under the peaks of the amino acid benzylamides were used to calculate their conversion during reaction.
10 μL of the stock solution of amino acid benzamide and 2.5 μL of the stock solution of benzamide were added to a vial containing 977.5 μL of PBS (1×, pH 7.6). The solution was stirred and 10 μL of the stock solution of electrophile were added to give 1 mM final concentrations of reagents and 0.25 mM concentration of benzamide. Aliquots of the reaction mixture (50 μL) were analyzed by HPLC for 1 hour of hydrolysis (injections at 0, 30 and 60 min). Areas under the peaks of the starting materials and hydrolysis products were normalized according to the area of peak of the internal standard. In case of phenylpropiolonitrile, none of amino acid models gave more than 1.6% conversion (see table 3 below). […] Masses of corresponding adducts were detected by mass spectrometry (ESI-LCMS) in some cases (shown in bold, Table 4).

[3] = Selectivity screening of electrophiles, whole panel of amino acid models; details: 1 hour, PBS (1×, pH 7.6), 1 mM reagents
Method: as §1, with “Areas under the peaks of the amino acid benzylamides were used to calculate their conversion during reaction.” left out
10 μL of the stock solution of amino acid benzamide and 2.5 μL of the stock solution of benzamide were added to a vial containing 977.5 μL of PBS (1×, pH 7.6). […] Aliquots of the reaction mixture (50 μL) were analyzed by HPLC for 1 hour of hydrolysis (injections at 0, 30 and 60 min). […] Masses of corresponding adducts were detected by mass spectrometry (ESI-LCMS) in some cases (shown in bold, Table 4).

[4] = Stability of probes A and B in human plasma (fluorescence over time); assay type: in vitro ADME; details: same concentration of A and B, FIG. 1
Excerpt: FIG. 1: Evolution of intensity of fluorescence over time obtained in human plasma for the same concentration of compounds A and B.
The stability of compounds A (according to the invention) and B (reference compound) below was studied in different biological conditions.

BNL CL.2 cells = experiment: Stability of probes A and B in cellulo (cytometry, microscopy); assay type: cell-based, mouse; details: 1 μM, 2, 6 and 24 hours, FIG. 2
Method: FIG. 2a-2c: a) Evolution of intensity of fluorescence over time obtained in cellulo for the same concentration of compounds A and B. • b) Intensity ratio compound B/compound A at different times in cellulo. • c) Microscope pictures of cells treated with compounds A and B, superimposition of TAMRA and Hoechst labeling. White spots around nucleus correspond to hydrolyzed probe. A—arylpropiolonitrile probe, B—maleimide probe.
Normal liver BNL CL.2 cells from mouse were grown in Dulbecco's MEM medium with 1 g/l glucose (Eurobio, Les Ulis, France) supplemented with 10% fetal bovine serum (Perbio, Brebieres, France), 2 mM L-Glutamine, 100 U/mL penicillin, 100 μg/mL streptomycin (Eurobio). Cells were maintained in a 5% CO2 humidified atmosphere at 37° C.
The required amounts of probes A and B were diluted up to 300 μl in MEM complete medium to give final concentration of 1 μM and then added onto the cells. A 5 μg/ml of Hoechst 118 solution was used as a nuclear marker.
The day before experiment, BNL CL.2 cells were seeded in 96-plates (Greiner Bio One, Frickenhausen, Germany) at 2.0×10^4 cells/well in Dulbecco's MEM complete medium. […] After washing with PBS (Eurobio), 5 min incubation with 40 μl trypsine, and addition of 160 μl of PBS EDTA 5 mM, cells were analyzed by flow cytometry on a PCA-96 Guava cytometer (Guava Technologies Merck Millipore, Billerica, Mass., USA) with a green laser.

| SMILES | kobs (pseudo first order rate constant of hydrolysis) [1] | hydrolysis (in words) ([1]; up to 5 hours of monitoring) | Conversion of AlaNHBn (7c) [2] | Conversion of ArgNHBn (7k) [2] | Conversion of AspNHBn (7l) [2] | Conversion of CysNHBn (7a) [2] | Conversion of GlnNHBn (7i) [2] | Conversion of GlyNHBn (7b) [2] | Conversion of HisNHBn (7h) [2] | Conversion of MetNHBn (7f) [2] | Conversion of SerNHBn (7e) [2] | Conversion of TrpNHBn (7j) [2] | Conversion of TyrNHBn (7g) [2] | Conversion of ValNHBn (7d) [2] | highest conversion among the amino acid models other than cysteine [3] | stability in human plasma (in words) [4] | stability in cellulo (in words) (BNL CL.2 cells) |
| --- | --- | --- | --- | --- | --- | --- | --- | --- | --- | --- | --- | --- | --- | --- | --- | --- | --- |
| O=C1C=CC(=O)N1c1ccccc1 [phenylmaleimide, reference compound] | 7e-05 s⁻¹ | Noticeable hydrolysis | 0.2% | 2.9% | 1.3% | 100% | 1.7% | 3.3% | 8.5% | 1.9% | 2.8% | 1.0% | 2.4% | 0.9% | up to 8.5% | – | – |
| COc1cc(/N=N/c2ccc([N+](=O)[O-])cc2)c(OC)cc1/N=N/c1ccc(N(C)CCCC(=O)NCCSC(=CC#N)c2ccc(NC(=O)CCCNC(=O)c3ccc(-c4c5ccc(=[N+](C)C)cc-5oc5cc(N(C)C)ccc45)c(C(=O)[O-])c3)cc2)cc1 [A] | – | – | – | – | – | – | – | – | – | – | – | – | – | – | – | far more stable than compound B in human plasma | far more stable than compound B in cellulo |
| N#CC#Cc1ccccc1 [phenylpropiolonitrile] | – | – | 0.1% | 0.4% | 0.6% | 98% | 0.1% | 0.2% | 0.6% | 0.1% | 0.3% | 1.3% | 1.6% | 0.7% | ≤ 1.6% | – | – |
